Test results: paper PMC9614482, “The superior salinity tolerance of bread wheat cultivar Shanrong No. 3 is unlikely to be caused by elevated Ta-sro1 poly-(ADP-ribose) polymerase activity” (The Plant Cell, 2022)
Blank lines part the entries; values can stand above or below the compound they belong to.

Legend:
[1] = target: T1, HsPARP1 (full-length) (Homo sapiens, UniProt P09874); format: biochemical; details: histones as substrates
T1 construct: gene PARP1; full-length protein supplied in the PARP Universal Colorimetric Assay Kit (Trevigen)

[2] = target: T2, HsPARP1 catalytic domain (PARP domain) (Homo sapiens, UniProt P09874, L713F); experiment: differential scanning fluorimetry; format: binding; details: 6(5H)-phenanthridinone concentrations above 2 µM
T2 construct: gene PARP1; recombinant, made in the authors' laboratory; only the L713F variant tested

[3] = target: T3, AtPARP2 (Arabidopsis thaliana, UniProt Q11207); experiment: immunoprecipitated GFP fusion, pan-ADP-ribose immunoblot; format: biochemical; details: 300 µM β-NAD+ in extraction buffer; auto-ADP-ribosylation, PAR chain formation
T3 construct: gene PARP2; GFP fusion, transiently expressed in Nicotiana benthamiana, immunoprecipitated with GFP-nanobody
T3 sequence (Q11207 whole entry, the tested form may be a part): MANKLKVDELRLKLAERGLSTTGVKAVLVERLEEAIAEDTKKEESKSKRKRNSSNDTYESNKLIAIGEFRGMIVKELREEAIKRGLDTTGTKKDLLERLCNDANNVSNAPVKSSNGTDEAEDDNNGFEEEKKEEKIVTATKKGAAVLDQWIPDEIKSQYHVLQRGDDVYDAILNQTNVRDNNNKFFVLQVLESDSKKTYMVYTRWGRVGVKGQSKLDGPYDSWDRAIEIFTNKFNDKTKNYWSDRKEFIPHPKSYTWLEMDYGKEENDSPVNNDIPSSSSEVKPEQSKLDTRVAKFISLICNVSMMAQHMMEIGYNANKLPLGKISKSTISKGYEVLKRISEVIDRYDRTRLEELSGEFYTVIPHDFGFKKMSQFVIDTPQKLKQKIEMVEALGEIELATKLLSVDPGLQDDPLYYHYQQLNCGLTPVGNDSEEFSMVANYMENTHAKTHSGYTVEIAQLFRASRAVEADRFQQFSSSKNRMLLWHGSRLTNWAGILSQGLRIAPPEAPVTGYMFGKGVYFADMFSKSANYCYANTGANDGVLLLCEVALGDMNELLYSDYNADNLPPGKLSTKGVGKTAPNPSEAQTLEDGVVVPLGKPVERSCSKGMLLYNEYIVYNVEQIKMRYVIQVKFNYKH

T1 sequence (P09874 2-1014): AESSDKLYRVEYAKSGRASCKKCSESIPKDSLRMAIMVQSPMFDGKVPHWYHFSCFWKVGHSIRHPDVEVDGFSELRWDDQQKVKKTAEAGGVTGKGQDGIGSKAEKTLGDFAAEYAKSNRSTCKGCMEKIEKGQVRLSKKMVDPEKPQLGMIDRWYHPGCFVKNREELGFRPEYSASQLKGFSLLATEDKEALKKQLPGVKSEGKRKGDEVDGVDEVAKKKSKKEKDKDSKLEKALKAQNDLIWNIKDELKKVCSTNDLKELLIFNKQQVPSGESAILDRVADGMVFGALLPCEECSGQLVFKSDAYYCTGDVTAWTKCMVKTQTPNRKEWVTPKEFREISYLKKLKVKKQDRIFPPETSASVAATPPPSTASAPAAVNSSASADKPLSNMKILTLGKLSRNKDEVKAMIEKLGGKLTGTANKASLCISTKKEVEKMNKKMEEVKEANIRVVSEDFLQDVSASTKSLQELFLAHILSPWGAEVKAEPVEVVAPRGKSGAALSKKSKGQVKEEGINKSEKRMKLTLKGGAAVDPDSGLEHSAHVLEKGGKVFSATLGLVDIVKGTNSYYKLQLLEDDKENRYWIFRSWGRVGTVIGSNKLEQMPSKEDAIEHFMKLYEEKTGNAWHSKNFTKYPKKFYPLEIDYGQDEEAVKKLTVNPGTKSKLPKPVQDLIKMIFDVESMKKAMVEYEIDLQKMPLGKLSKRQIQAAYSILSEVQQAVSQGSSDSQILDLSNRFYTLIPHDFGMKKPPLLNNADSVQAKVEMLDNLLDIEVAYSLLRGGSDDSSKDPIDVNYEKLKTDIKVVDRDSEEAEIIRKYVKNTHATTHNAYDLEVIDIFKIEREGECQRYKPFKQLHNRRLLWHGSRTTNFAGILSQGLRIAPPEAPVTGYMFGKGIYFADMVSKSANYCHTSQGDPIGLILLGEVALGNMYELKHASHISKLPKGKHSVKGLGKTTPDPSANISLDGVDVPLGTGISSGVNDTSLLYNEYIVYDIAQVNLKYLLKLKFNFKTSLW
T2 sequence (P09874 662-1014 L713F limits assumed): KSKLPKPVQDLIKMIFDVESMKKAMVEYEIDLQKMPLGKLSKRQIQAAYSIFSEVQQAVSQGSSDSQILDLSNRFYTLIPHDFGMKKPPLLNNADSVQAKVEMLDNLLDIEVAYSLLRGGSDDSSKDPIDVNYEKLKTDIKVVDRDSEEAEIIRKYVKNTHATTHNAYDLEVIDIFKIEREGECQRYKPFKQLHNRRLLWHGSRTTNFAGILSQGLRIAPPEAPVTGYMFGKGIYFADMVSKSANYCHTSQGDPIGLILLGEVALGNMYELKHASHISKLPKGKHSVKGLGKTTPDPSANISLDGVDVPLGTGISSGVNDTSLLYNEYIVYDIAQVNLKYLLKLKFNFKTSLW

SMILES: NC(=O)c1cccc(N)c1 [3-aminobenzamide]
colorimetric PARP assay kit, ADP-ribosylation of histones [1]: 3-aminobenzamide (3AB) inhibited ADP-ribosylation of histones by HsPARP1

dTm [2]: ~ +4 °C
SMILES: O=c1[nH]c2ccccc2c2ccccc12 [6(5H)-phenanthridinone]

SMILES: NC(=O)c1ccc[n+]([C@@H]2O[C@H](COP(=O)(O)OP(=O)(O)OC[C@H]3O[C@@H](n4cnc5c(N)ncnc54)[C@H](O)[C@@H]3O)[C@@H](O)[C@H]2O)c1 [NAD+]
immunoprecipitated GFP fusion, pan-ADP-ribose immunoblot [3]: canonical Arabidopsis PARP2 enzyme formed PAR chains in a NAD^+-dependent manner
